# Measured values taken from US20080027145A1, “Therapeutic Molecules and Methods for Generating and/or Selecting Same” (priority 2004, published 2008).
# Assays:
# [1] = molecular target: T1, Mcl-1 (Mus musculus, UniProt P97287); test: Solution competition assay (competition with immobilized wtBimBH3, biosensor); format: binding; conditions: Mcl-1
# T1 construct: mouse Mcl-1 (Acc. no. NP_031588; residues 152-308); GST (N, cleaved yes); made in house
# Description: (§1) The relative affinities of BH3 peptides for pro-survival Bcl-2 proteins were assessed by comparing their abilities to compete with immobilized ^wtBimBH3 peptide for binding to Bcl-2-like proteins (Wilson-Annan et al., Supra). A fixed sub-saturating amount (10 nM) of a pro-survival Bcl-2 protein was incubated with varying amounts of competitor BH3 peptide in HBS for >2 hr on ice. The mixtures were then injected over a sensor chip containing a channel bearing mouse ^wtBimBH3 and a control channel with mouse ^4EBimBH3 immobilized. The baseline response (control channel) was subtracted to obtain the absolute binding response. Taking the response for the pro-survival protein alone as the maximal response (100%), the relative residual binding (%) in the presence of increasing amounts of competitor peptides at a given injection time point (430 s) was then calculated. […] Theoretically, IC50=[A]/2+KD, where [A] is the analyte concentration.
# (§2) Some of recombinant proteins (Bcl-2, Bcl-xL, A1) studied contain cysteine residues but the behavior of Bcl-2 or Bcl-xL was not affected by dithiothreitol (DTT).
# (§3) To assess if other BH3 peptides bind pro-survival proteins similarly, we directly compared their binding affinities in solution using a competitive binding assay. In such assays, the quality and absolute quantity of target proteins are less critical than in direct binding, and solution binding precludes the steric hindrance encountered with some immobilized peptides. FIG. 1C illustrates the approach: pre-incubation of Bcl-xL in solution with increasing amounts of BikBH3 reduced its binding to ^wtBimBH3 (FIG. 1D). From the attenuation in binding, the IC50 (competitor peptide concentration that halves binding) of BikBH3 can be calculated (FIG. 1E). As the IC50 values reflect relative binding affinities (see Experimental Procedures), we used this assay to compare the binding affinities of eight BH3 peptides (Table 3) to the five pro-survival proteins. […] Their binding properties fell into several classes (FIG. 2B and FIG. 4). […] Contrary to the prevailing view, the pro-survival proteins also had unique patterns for BH3 binding: Bcl-xL behaved like Bcl-w, with Bcl-2 more distinct, whereas Mcl-1 and A1 formed a separate group (FIG. 2B).
# [2] = system: pro-survival proteins (Bcl-2, Bcl-xL, Bcl-w, Mcl-1, A1); test: Solution competition assay, statements spanning several pro-survival proteins; format: binding, human and mouse; conditions: Bcl-2, Bcl-xL, Bcl-w, Mcl-1, A1
# Description: as §1, §2, §3
# [3] = molecular target: T2, Mcl-1 ΔN151 ΔC23 (Mus musculus, UniProt P97287); test: Direct binding to immobilized BH3 peptide, Biacore biosensor; conditions: BadBH3 or NoxaBH3 immobilized chip
# T2 construct: mouse Mcl-1 (Acc. no. NP_031588; residues 152-308); GST (N, cleaved yes); made in house
# T2 sequence (P97287 152-308): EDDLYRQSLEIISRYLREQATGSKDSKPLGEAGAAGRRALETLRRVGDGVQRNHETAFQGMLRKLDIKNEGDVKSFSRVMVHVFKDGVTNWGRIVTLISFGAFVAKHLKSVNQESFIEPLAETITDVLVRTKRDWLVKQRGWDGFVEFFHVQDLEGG
# Description: (§4) Recombinant human Bcl-xL ΔC24, mouse Mcl-1 ΔN151 ΔC23 and mouse A1 ΔC20 were expressed as GST fusion proteins and cleaved off Glutathione Sepharose columns as described (Day et al., Cell Death Differ 6:1125-1132, 1999; Hinds et al., EMBO J 22:1497-1507, 2003).
# (§5) Affinity measurements were performed at room temperature on a Biacore 3000 biosensor (Biacore) with HBS (10 mM HEPES pH 7.2, 150 mM NaCl, 3.4 mM EDTA, 0.005% Tween 20) as the running buffer. Mouse 26-mer ^wtBimBH3, ^4EBimBH3 mutant, BadBH3, NoxaBH3 or control irrelevant peptides were immobilized onto CM5 sensor chips using amine-coupling chemistry (Wilson-Annan et al., Supra). To assess the binding affinities of pro-survival Bcl-2-like proteins for BimBH3 directly, the proteins were directly injected into the sensor chip at 20 μl/min. Residual bound proteins were desorbed with 50 mM NaOH or 6 M GuHCl (pH 7.2), followed by two washes with running buffer. Binding kinetics were derived from sensorgrams, following subtraction of baseline responses, using BIA evaluation software (version 3, Biacore) (Wilson-Annan et al., Supra).
# (§6) The binding constants of the pro-survival molecules for ^wtBimBH3, immobilized on sensor chip, were determined using biosensor experiments as described in Hinds et al., Supra; Wilson-Annan et al., Supra.
# [4] = molecular target: T3, Bcl-xL ΔC24 (Homo sapiens, UniProt Q07817); test: as above; conditions: BadBH3 or NoxaBH3 immobilized chip
# T3 construct: Human Bcl-xL (Acc. no. NP_612815; residues 1-209); GST (N, cleaved yes); made in house
# T3 sequence (Q07817 1-209): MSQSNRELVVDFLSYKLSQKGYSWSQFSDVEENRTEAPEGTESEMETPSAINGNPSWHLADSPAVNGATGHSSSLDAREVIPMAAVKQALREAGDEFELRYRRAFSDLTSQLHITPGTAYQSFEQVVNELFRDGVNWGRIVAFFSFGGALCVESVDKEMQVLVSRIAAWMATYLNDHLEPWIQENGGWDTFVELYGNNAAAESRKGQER
# Description: as §4, §5, §6
# [5] = molecular target: T4, Bcl-2 ΔC22 (Homo sapiens, UniProt P10415); test: as above; conditions: BadBH3 or NoxaBH3 immobilized chip
# T4 construct: Human Bcl-2 (Acc. no. NP_000624; residues 1-217); made in house
# T4 sequence (P10415 1-217): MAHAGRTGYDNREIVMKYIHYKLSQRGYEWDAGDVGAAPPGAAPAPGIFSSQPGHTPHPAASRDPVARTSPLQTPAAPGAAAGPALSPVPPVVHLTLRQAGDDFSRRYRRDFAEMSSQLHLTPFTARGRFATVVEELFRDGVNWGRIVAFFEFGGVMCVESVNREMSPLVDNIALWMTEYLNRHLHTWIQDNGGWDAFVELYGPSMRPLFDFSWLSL
# Description: as §4, §5, §6
# [6] = molecular target: T5, Bcl-w ΔC29 (Homo sapiens, UniProt Q92843, A128E/C29S); test: as above; conditions: BadBH3 or NoxaBH3 immobilized chip
# T5 construct: human Bcl-w (Acc. no. NP_004041; residues 1-164; C29S A128E); made in house
# T5 sequence (Q92843 1-164 C29S/A128E): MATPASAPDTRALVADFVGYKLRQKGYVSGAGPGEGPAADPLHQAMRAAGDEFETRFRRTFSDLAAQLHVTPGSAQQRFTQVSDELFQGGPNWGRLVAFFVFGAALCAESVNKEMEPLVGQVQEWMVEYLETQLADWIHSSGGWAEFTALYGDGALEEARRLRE
# Description: as §4, §5, §6
# [7] = molecular target: T6, A1 ΔC20 (Mus musculus, UniProt Q07440); test: as above; conditions: BadBH3 or NoxaBH3 immobilized chip
# T6 construct: mouse A1 (Acc. no. NP_033872; residues 1-152); GST (N, cleaved yes); made in house
# T6 sequence (Q07440 1-152): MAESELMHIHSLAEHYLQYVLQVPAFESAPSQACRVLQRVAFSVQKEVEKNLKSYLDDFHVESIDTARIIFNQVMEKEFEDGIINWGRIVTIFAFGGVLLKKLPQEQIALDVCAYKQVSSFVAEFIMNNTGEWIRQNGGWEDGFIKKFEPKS
# Description: as §4, §5, §6
# T1 sequence (P97287 152-308): as the sequence (P97287 152-308) above
smiles,measurement,setting,value
CSCC[C@H](NC(=O)[C@H](CCCNC(=N)N)NC(=O)[C@H](CCCNC(=N)N)NC(=O)[C@H](CC(C)C)NC(=O)[C@H](CCC(=O)O)NC(=O)[C@H](CCCNC(=N)N)NC(=O)CNC(=O)[C@H](Cc1ccc(O)cc1)NC(=O)[C@H](CCCNC(=N)N)NC(=O)[C@H](CCC(N)=O)NC(=O)[C@H](C)NC(=O)[C@H](C)NC(=O)[C@H](Cc1c[nH]c2ccccc12)NC(=O)[C@H](CC(C)C)NC(=O)[C@@H](N)CC(N)=O)C(=O)N[C@@H](CO)C(=O)N[C@@H](CC(=O)O)C(=O)N[C@@H](CCC(=O)O)C(=O)N[C@@H](Cc1ccccc1)C(=O)N[C@H](C(=O)N[C@@H](CC(=O)O)C(=O)N[C@@H](CO)C(=O)N[C@@H](Cc1ccccc1)C(=O)N[C@@H](CCCCN)C(=O)N[C@@H](CCCCN)C(=O)NCC(=O)O)C(C)C [BadBH3],IC50,[1],> 100 µM
same,binding preference among pro-survival proteins,[2],"strongly preferred Bcl-2, BCl-xL and Bcl-w"
same,binding of Mcl-1 to immobilized peptide,[3],no affinity
same,binding of Bcl-xL to immobilized peptide,[4],avidly
same,binding of Bcl-2 to immobilized peptide,[5],avidly
same,binding of Bcl-w to immobilized peptide,[6],avidly
same,binding of A1 to immobilized peptide,[7],no affinity
